IC50 data for 16 compounds are collected here from patent US10196386B2, “Compounds having muscarinic receptor antagonist and beta2 adrenergic receptor agonist activity” (priority 2016, dated 2019).

pIC50: −log10 of the molar value.

Test [1] concerns the target T1, Human β2 adrenoceptor (Homo sapiens, UniProt P07550).
T1 construct: purchased Perkin Elmer
The test can be described thus: β2 adrenoceptor radioligand binding assay. How it is done: β2 Adrenoceptor Radioligand Binding Assay
Human β2 adrenoceptor membranes (7.5 ug/well) from Perkin Elmer were incubated with 0.3 nM 125-I Cyanopindolol with or without test compounds, or a saturating concentration of s-propranolol (2 μM) for the determination of non-specific binding. The assay was carried out in 96-well polypropylene plates in a volume of 200 ul. The assay buffer used was 25 mM HEPES, 0.5% BSA (w/v), 1 mM EDTA, 0.02% ascorbic acid (v/v), (pH 7.4). The final assay concentration of DMSO was 0.5% (v/v). The plates were sealed and incubated for 1 h at room temperature on an orbital shaker (slow speed). Membranes were harvested onto 96-well unifilter GF/C filter plates pre-treated with 0.5% polyethyleneimine (v/v), using a filter manifold, washed six times with 200 ul of wash buffer containing 10 mM HEPES and 500 mM NaCl. The plates were dried before addition of 50 μl of microscint-0, sealed then read in a Trilux Microbeta scintillation counter. IC50 values are determined from competition curves using a non-linear curve fitting program. Ki values were calculated from IC50 values by the Cheng and Prusoff equation.

Test [2] deals with T2, Human M3 receptor (Homo sapiens, UniProt P20309).
T2 construct: purchased Perkin Elmer
The test is described as follows: biochemical. The class given is binding. To be noted: read-out: M3 Range.

T2 sequence (P20309 whole entry): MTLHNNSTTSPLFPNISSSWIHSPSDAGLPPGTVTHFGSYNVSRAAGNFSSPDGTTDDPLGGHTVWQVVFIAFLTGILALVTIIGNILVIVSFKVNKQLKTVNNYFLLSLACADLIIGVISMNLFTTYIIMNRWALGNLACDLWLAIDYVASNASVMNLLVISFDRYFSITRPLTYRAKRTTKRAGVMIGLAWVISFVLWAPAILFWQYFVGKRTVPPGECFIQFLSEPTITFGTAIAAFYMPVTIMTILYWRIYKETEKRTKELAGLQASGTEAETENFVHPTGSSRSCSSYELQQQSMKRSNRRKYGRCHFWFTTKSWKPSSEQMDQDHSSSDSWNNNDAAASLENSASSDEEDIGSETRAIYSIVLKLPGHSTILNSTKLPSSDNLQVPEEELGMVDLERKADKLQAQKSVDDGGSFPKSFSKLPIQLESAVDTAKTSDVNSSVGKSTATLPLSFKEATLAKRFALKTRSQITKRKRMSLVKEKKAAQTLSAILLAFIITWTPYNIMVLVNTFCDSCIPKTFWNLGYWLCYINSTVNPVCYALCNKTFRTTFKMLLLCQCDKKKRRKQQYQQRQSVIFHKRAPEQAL
T1 sequence (P07550 whole entry): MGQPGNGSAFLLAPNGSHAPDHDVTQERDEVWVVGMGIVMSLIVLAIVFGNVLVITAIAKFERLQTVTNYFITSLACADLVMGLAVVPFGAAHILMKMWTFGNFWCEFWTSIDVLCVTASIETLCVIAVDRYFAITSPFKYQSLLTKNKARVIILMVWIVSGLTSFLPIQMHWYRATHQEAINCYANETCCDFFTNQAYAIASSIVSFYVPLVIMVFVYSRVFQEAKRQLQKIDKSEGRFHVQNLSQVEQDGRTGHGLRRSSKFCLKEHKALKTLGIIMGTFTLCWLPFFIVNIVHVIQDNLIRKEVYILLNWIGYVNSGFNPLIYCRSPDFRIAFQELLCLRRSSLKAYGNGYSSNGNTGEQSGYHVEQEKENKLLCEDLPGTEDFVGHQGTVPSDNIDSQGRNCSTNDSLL

Regarding `O=C(NCc1ccc(-c2cccc([C@](O)(C(=O)OCC3CCN(Cc4ccccc4)CC3)c3ccccc3)c2)s1)c1ccc(CNC[C@H](O)c2ccc(O)c3[nH]c(=O)ccc23)cc1Cl` [Compound 1, (1-Benzylpiperidin-4-yl)methyl (S)-2-(3-(5-((2-chloro-4-((((R)-2-hydroxy-2-(8-hydroxy-2-oxo-1,2-dihydroquinolin-5-yl)ethyl)amino)methyl)benzamido-)methyl)thiophen-2-yl)phenyl)-2-hydroxy-2-phenylacetate], the pIC50 in test [1] is more than 9.52; in test [2], 8.52 to 9.52.
Taken in the same sequence, the figures for `O=C(NCc1ccc(-c2cccc([C@](O)(C(=O)OCC3CCN(Cc4ccccc4)CC3)c3ccccc3)c2)s1)c1ccc(CNC[C@H](O)c2ccc(O)c3[nH]c(=O)ccc23)cc1` [Compound 1A, (1-Benzylpiperidin-4-yl)methyl (S)-2-hydroxy-2-(3-(5-((4-((((R)-2-hydroxy-2-(8-hydroxy-2-oxo-1,2-dihydroquinolin-5-yl)ethyl)amino)methyl)benzamido)-methyl)thiophen-2-yl)phenyl)-2-phenylacetate] were more than 9.52 and 8.52 to 9.52.
Taken in the same sequence, the figures for `COc1cc(C(=O)NCc2ccc(-c3cccc([C@](O)(C(=O)OCC4CCN(Cc5ccccc5)CC4)c4ccccc4)c3)s2)ccc1CNC[C@H](O)c1ccc(O)c2[nH]c(=O)ccc12` [Compound 1B, (1-Benzylpiperidin-4-yl)methyl (S)-2-hydroxy-2-(3-(5-((4-((((R)-2-hydroxy-2-(8-hydroxy-2-oxo-1,2-dihydroquinolin-5-yl)ethyl)amino)methyl)-3-methoxybenzamido)methyl)thiophen-2-yl)phenyl)-2-phenylacetate] were more than 9.52 and 8.52 to 9.52.
Taken in the same sequence, the figures for `COc1cc(CNC[C@H](O)c2ccc(O)c3[nH]c(=O)ccc23)ccc1C(=O)NCc1ccc(-c2cccc([C@](O)(C(=O)OCC3CCN(Cc4ccccc4)CC3)c3ccccc3)c2)s1` [Compound 1C, (1-Benzylpiperidin-4-yl)methyl (S)-2-hydroxy-2-(3-(5-((4-((((R)-2-hydroxy-2-(8-hydroxy-2-oxo-1,2-dihydroquinolin-5-yl)ethyl)amino)methyl)-2-methoxybenzamido)methyl)thiophen-2-yl)phenyl)-2-phenylacetate] were 8.52 to 9.52 and 8.52 to 9.52.
As to `COc1cc(C(=O)NCc2ccc(-c3cccc([C@](O)(C(=O)OCC4CCN(Cc5ccccc5)CC4)c4ccccc4)c3)s2)c(Cl)cc1CNC[C@H](O)c1ccc(O)c2[nH]c(=O)ccc12` [Compound 1D, (1-Benzylpiperidin-4-yl)methyl (S)-2-(3-(5-((2-chloro-4-((((R)-2-hydroxy-2-(8-hydroxy-2-oxo-1,2-dihydroquinolin-5-yl)ethyl)amino)methyl)-5-methoxybenzamido)methyl)thiophen-2-yl)phenyl)-2-hydroxy-2-phenylacetate], the pIC50 was more than 9.52 in test [1] and 8.52 to 9.52 in test [2].
Taken in the same sequence, the figures for `COc1cc(C(=O)NCc2ccc(-c3cccc([C@](O)(C(=O)OCC4CCN(Cc5ccccc5)CC4)c4ccccc4)c3)s2)c(F)cc1CNC[C@H](O)c1ccc(O)c2[nH]c(=O)ccc12` [Compound 1E, (1-Benzylpiperidin-4-yl)methyl (S)-2-(3-(5-((2-fluoro-4-((((R)-2-hydroxy-2-(8-hydroxy-2-oxo-1,2-dihydroquinolin-5-yl)ethyl)amino)methyl)-5-methoxybenzamido)methyl)thiophen-2-yl)phenyl)-2-hydroxy-2-phenylacetate] were more than 9.52 and 8.52 to 9.52.
Consider `O=C(NCc1ccc(-c2cccc([C@](O)(C(=O)OCC3CCN(Cc4ccccc4)CC3)c3ccccc3)c2)s1)c1ccc(CNC[C@H](O)c2ccc(O)c3[nH]c(=O)ccc23)c(C(F)(F)F)c1` [Compound 1F, (1-Benzylpiperidin-4-yl)methyl (S)-2-hydroxy-2-(3-(5-((4-((((R)-2-hydroxy-2-(8-hydroxy-2-oxo-1,2-dihydroquinolin-5-yl)ethyl)amino)methyl)-3-(trifluoromethyl)benzamido)methyl)thiophen-2-yl)phenyl)-2-phenylacetate], for which the pIC50 was 8.52 to 9.52 in test [1] and less than 8.52 in test [2].
Taken in the same sequence, the figures for `O=C(NCc1ccc(-c2cccc([C@](O)(C(=O)OCC3CCN(Cc4ccccc4)CC3)c3ccccc3)c2)s1)c1ccc(CNC[C@H](O)c2ccc(O)c3[nH]c(=O)ccc23)cc1F` [Compound 1G, (1-Benzylpiperidin-4-yl)methyl (S)-2-(3-(5-((2-fluoro-4-((((R)-2-hydroxy-2-(8-hydroxy-2-oxo-1,2-dihydroquinolin-5-yl)ethyl)amino)methyl)-benzamido)methyl)thiophen-2-yl)phenyl)-2-hydroxy-2-phenylacetate] were more than 9.52 and 8.52 to 9.52.
Taken in the same sequence, the figures for `O=C(NCc1ccc(-c2cccc([C@](O)(C(=O)OCC3CCN(Cc4ccccc4)CC3)c3ccccc3)c2)s1)c1ccc(CCNC[C@H](O)c2ccc(O)c3[nH]c(=O)ccc23)cc1` [Compound 1H, (1-Benzylpiperidin-4-yl)methyl (S)-2-hydroxy-2-(3-(5-((4-(2-(((R)-2-hydroxy-2-(8-hydroxy-2-oxo-1,2-dihydroquinolin-5-yl)ethyl)amino)ethyl)-benzamido)methyl)thiophen-2-yl)phenyl)-2-phenylacetate] were 8.52 to 9.52 and 8.52 to 9.52.
Taken in the same sequence, the figures for `CCOc1cc(C(=O)NCc2ccc(-c3cccc([C@](O)(C(=O)OCC4CCN(Cc5ccccc5)CC4)c4ccccc4)c3)s2)ccc1CNC[C@H](O)c1ccc(O)c2[nH]c(=O)ccc12` [Compound 1I, (1-Benzylpiperidin-4-yl)methyl (S)-2-(3-(5-((3-ethoxy-4-((((R)-2-hydroxy-2-(8-hydroxy-2-oxo-1,2-dihydroquinolin-5-yl)ethyl)amino)methyl)-benzamido)methyl)thiophen-2-yl)phenyl)-2-hydroxy-2-phenylacetate] were 8.52 to 9.52 and 8.52 to 9.52.
As to `O=C(NCc1ccc(-c2cccc([C@](O)(C(=O)OCC3CCN(Cc4ccccc4)CC3)c3ccccc3)c2)s1)c1ccc(CNC[C@H](O)c2ccc(O)c3[nH]c(=O)ccc23)c(F)c1` [Compound 1J, (1-Benzylpiperidin-4-yl)methyl (S)-2-(3-(5-((3-fluoro-4-((((R)-2-hydroxy-2-(8-hydroxy-2-oxo-1,2-dihydroquinolin-5-yl)ethyl)amino)methyl)-benzamido)methyl)thiophen-2-yl)phenyl)-2-hydroxy-2-phenylacetate], the pIC50 in test [1] was more than 9.52; in test [2] it was 8.52 to 9.52.
Turning to `COc1c(CNC[C@H](O)c2ccc(O)c3[nH]c(=O)ccc23)ccc(C(=O)NCc2ccc(-c3cccc([C@](O)(C(=O)OCC4CCN(Cc5ccccc5)CC4)c4ccccc4)c3)s2)c1F` [Compound 1K, (1-Benzylpiperidin-4-yl)methyl (S)-2-(3-(5-((2-fluoro-4-((((R)-2-hydroxy-2-(8-hydroxy-2-oxo-1,2-dihydroquinolin-5-yl)ethyl)amino)methyl)-3-methoxybenzamido)methyl)thiophen-2-yl)phenyl)-2-hydroxy-2-phenylacetate], the pIC50 in test [1] is more than 9.52; in test [2] it was 8.52 to 9.52.
As for `O=C(NCc1ccc(-c2cccc([C@](O)(C(=O)OCC3CCN(Cc4ccccc4)CC3)c3ccccc3)c2)s1)c1ccc(CNC[C@H](O)c2ccc(O)c3[nH]c(=O)ccc23)nc1` [Compound 1L, (1-Benzylpiperidin-4-yl)methyl (S)-2-hydroxy-2-(3-(5-((6-((((R)-2-hydroxy-2-(8-hydroxy-2-oxo-1,2-dihydroquinolin-5-yl)ethyl)amino)methyl)-nicotinamido)methyl)thiophen-2-yl)phenyl)-2-phenylacetate], the pIC50 in test [1] is more than 9.52; in test [2], 8.52 to 9.52.
`CN1CCC(OC(=O)[C@](O)(c2ccccc2)c2cccc(-c3ccc(CNC(=O)c4ccc(CNC[C@H](O)c5ccc(O)c6[nH]c(=O)ccc56)cc4)s3)c2)CC1` [Compound 2, 1-Methylpiperidin-4-yl (S)-2-hydroxy-2-(3-(5-((4-((((R)-2-hydroxy-2-(8-hydroxy-2-oxo-1,2-dihydroquinolin-5-yl)ethyl)amino)methyl)benzamido)-methyl)thiophen-2-yl)phenyl)-2-phenylacetate] gave a pIC50 in test [1] of more than 9.52.
Consider `O=C(NCc1ccc(-c2cccc([C@](O)(C(=O)OC[C@H]3CCCN(Cc4ccccc4)C3)c3ccccc3)c2)s1)c1ccc(CNC[C@H](O)c2ccc(O)c3[nH]c(=O)ccc23)cc1` [Compound 2C, ((S)-1-Benzylpiperidin-3-yl)methyl (S)-2-hydroxy-2-(3-(5-((4-((((R)-2-hydroxy-2-(8-hydroxy-2-oxo-1,2-dihydroquinolin-5-yl)ethyl)amino)-methyl)benzamido)methyl)thiophen-2-yl)phenyl)-2-phenylacetate], for which the pIC50 in test [1] is 8.52 to 9.52.
Compound `O=C(NCc1ccc(-c2cccc([C@](O)(C(=O)OC3CCN(Cc4ccccc4)CC3)c3ccccc3)c2)s1)c1ccc(CNC[C@H](O)c2ccc(O)c3[nH]c(=O)ccc23)cc1` [Compound 2F, 1-Benzylpiperidin-4-yl (S)-2-hydroxy-2-(3-(5-((4-((((R)-2-hydroxy-2-(8-hydroxy-2-oxo-1,2-dihydroquinolin-5-yl)ethyl)amino)methyl)-benzamido)methyl)thiophen-2-yl)phenyl)-2-phenylacetate] had a pIC50 in test [1] of more than 9.52.
